# Like-named read-outs stand apart in the source and are kept apart here.
# Assays:
# [1] = Intravenous TAF pharmacokinetic mouse study (plasma, PBMC, tissue homogenate); assay type: in vivo, C57BL/6 J mice; conditions: female, C57BL/6 J, mouse, iv, 0.5 mg
# Protocol: C57BL/6 J Mice (9 groups of 4 animals each; 36 mice total) were administered the study product (0.5 mg dose, 0.1 mL) by intravenous (IV) injection. Animals (N = 4) were sacrificed at the following timepoints: Day 1 (1, 3, 6, 12, 24 h), Day 2, 4, 8, and 14. Blood was collected by exsanguination along with select tissue specimens (vide infra).
# The isolation of plasma and PBMCs from blood samples was carried out in a laminar flow hood using aseptic techniques, and the entire process was completed in under 45 min to minimize analyte metabolism. Blood was transferred into collection tubes containing sodium citrate (final concentration, 0.4% w/v), diluted using one volume equivalent of 1 × PBS solution, and mixed by inversion. The minimum final volume was 4.0 mL. Prior to the addition of blood samples, Ficoll-Paque media (MilliporeSigma, Burlington, MA, 3.2 mL) was transferred into a 12 mL LeucoSep tube (Greiner, Monroe, NC) and centrifuged at 1000 g for 20 s at room temperature, causing the media to settle just below the porous barrier. The homogenous, diluted blood-PBS mixture was transferred into the prepared LeucoSep tube and centrifuged at 1000 g for 10 min at room temperature, resulting in the formation of three layers above the porous barrier: (A) top layer, consisting of the plasma fraction; (B) middle, interface layer, containing the PBMCs; and (C) thin lower layer, just above the barrier, consisting of Ficoll-Paque media. Layer A (plasma) was transferred to empty 1.5 mL microfuge tubes in 0.5 mL aliquots, and flash-frozen in liquid nitrogen. Layer B (PBMCs) was transferred into an empty 15 mL centrifuge tube and PBS added to the 12 mL mark, followed by gentle inversion mixing. The suspension was centrifuged at 400 g for 15 min, the supernatant removed, and the pellet resuspended in PBS (10 mL) by gentle pipetting. An aliquot (10 µL) was removed from the suspension for cell counting and the remaining sample was centrifuged at 400 g for 15 min. The supernatant was removed without disturbing the cell pellet, which was treated with ice-cold 70% v/v methanol in molecular-grade water (1.0 mL). The mixture was mixed lightly by vortex agitation to lyse the cells, followed by transfer to a 2.0 mL cryovial that was flash-frozen in liquid nitrogen.
# Vaginal, rectal, spleen, and thymus tissue samples were collected from sacrificed animals at Day 1 (12, 24 h), Day 4, and 8; rectal tissue samples were not collected at 12 h. The samples were transferred into pre-weighed sample tubes, weighed, and flash-frozen in liquid nitrogen.
# PBMC results were normalized to the number of cells and reported as fmol/10^6 cells or as intracellular concentration based on cell volume, in nM. Tissue results were normalized to sample mass and reported as ng mg^-1 or fmol mg^-1.
# [2] = MALDI imaging mass spectrometry of dermal tissues adjacent to the implant; assay type: in vivo, C57BL/6 J mice
# Protocol: The used implants, the surrounding capsule, and the encasing dermal tissue were removed as a block in accordance with ISO 10993-6 guidelines, processed and stored, as described elsewhere. Briefly, the capsule was cut longitudinally and rolled open, taking care not to disrupt the architecture of the tissue or to damage the used implant. A portion of the tissue specimen was placed into 4% paraformaldehyde solution (phosphate-buffered at pH 7.2), and stored at 4 °C, for histopathology and two other portions were flash-frozen in liquid nitrogen for drug concentration analysis as well as for drug spatial distribution analysis by MALDI-IMS (vide infra).
# Frozen mouse tissue specimens were shipped to Vanderbilt University on dry ice and stored at − 80 °C prior to use. Tissues were removed from the − 80 °C freezer and placed in a − 20 °C cryostat (CM 1900, Leica Biosystems, Buffalo Grove, IL) and sectioned. Tissue samples that had been prepared via removal of the used implant were affixed to the cryostat chuck with optimal cutting temperature (OCT) polymer and were cut on the cryostat into 12 µm thick sections for imaging mass spectrometry and H&E staining.
# Tissue samples that still contained the implant in place were embedded in OCT prior to sectioning. In order to minimize the artifactual signal from the TAF powder after sectioning (the act of the cryostat blade cutting through an intact implant distributed residual TAF powder that still remained in the used implant onto the surrounding tissue section), house vacuum was used to remove visible TAF powder, followed by lightly running nitrogen gas over the plate to remove any additional loose powder from the slide.
# The tissue sections were thaw-mounted onto indium-tin oxide coated glass slides for imaging (Delta Technologies, Ltd, Loveland, CO). The tissue sections were left to dry for at least 15 min in a desktop vacuum desiccator prior to matrix application. […] For 9AA, four passes were applied at 85 °C in a crisscross pattern, with a 700 mm min^-1 stage velocity, 2 mm track spacing, and 0.15 mL min^-1 flow rate. For DHB the same method was used, except eight passes were applied and the stage velocity was 1300 mm min^-1.
# Flash-frozen dermal tissue samples collected adjacent to the TAF implants and sectioned were analyzed with a linear ion trap mass spectrometer equipped with a MALDI source and a nitrogen laser (LTQ XL, Thermo Scientific, Waltham, MA). The structures of compounds of interest are shown in Scheme 1. Targeted MS/MS methods were optimized for each compound using authentic samples as standards, with the final parameters shown in Appendix A under Supplementary Information. Pseudo-selected reaction monitoring mode was used for imaging by isolating precursor ions with a 1 Da window, fragmenting them, and acquiring full product ion mass spectra at each pixel. TFV, TFV-MP, and TFV-DP were analyzed in negative ion mode, while TAF, Metabolite X, and Metabolite Y were analyzed in positive ion mode. In most cases, after imaging, the matrix was removed and the tissue section that had been imaged was H&E stained for better image registration with tissue morphology. Standard images were acquired at either 50 or 100 µm spatial resolution. Reconstructed ion images were generated in ImageQuest software (Thermo Scientific, Waltham, MA) by plotting the intensity of the diagnostic fragment ion or ions as a function of location across the tissue surface.
smiles,measurement,setting,value
"C[C@H](Cn1cnc2c(N)ncnc21)OCP(=O)(O)O [TFV, tenofovir]",half-life,"[1]; rectal tissue, read-out: Terminal half-life in rectal tissue (NCA) (converted)",43 h
same,half-life,"[1]; spleen, read-out: Terminal half-life in spleen (NCA) (converted)",30.5 h
same,half-life,"[1]; thymus, read-out: Terminal half-life in thymus (NCA) (converted)",20.1 h
same,half-life,"[1]; vaginal tissue, read-out: Terminal half-life in vaginal tissue (NCA) (converted)",39.1 h
same,Detection by MALDI-IMS in dermal tissue samples during implant TAF delivery,[2]; all medicated specimens,detected
same,Spatial distribution in dermal tissue sections (MALDI-IMS),"[2]; high-releasing (0.58 mg d^-1) implants, D3–D28",distributed homogeneously throughout the samples
same,MALDI-IMS signal and localization with implant in situ,"[2]; low-releasing (0.23 mg d^-1) implants, Day 14, 100 µm resolution",most abundant signals

# Source: PMC9114338 (Scientific Reports, 2022)
